Assay results reported in paper PMC8728392, “Synthesis, Anticancer Assessment, and Molecular Docking of Novel Chalcone-Thienopyrimidine Derivatives in HepG2 and MCF-7 Cell Lines” (Oxidative Medicine and Cellular Longevity, 2021).

Columns and labels:
[1] = tested on: Bax, Bcl-2, caspase-3, and caspase-9 in HepG2; assay: RT-PCR relative expression of apoptosis markers; assay type: cell-based, human; details: IC50, 8-hour incubation, vs control
Text: We determined the effect of IC50 concentration of newly synthesized thienopyrimidine derivatives (3a-e and 3g and 3b and 3g) on the relative expression levels of some markers of apoptosis in HepG2 and MCF-7 cell lines, respectively. These included the antiapoptotic marker Bcl-2 as well as the apoptotic markers Bax, caspase-3, and caspase-9 [33]. BIORAD iScript™ One-Step RT-PCR kit with SYBR® Green was used to assess the relative levels of expression of apoptosis markers. The measurement was carried out according to the technique of reverse transcription polymerase chain reaction (RT-PCR) using the Rotor-Gene RT-PCR system, and the method of the used kit was done based on the manufacturer's instructions. The procedure of this assay included the following:
Based on the manufacturer's instructions, the Qiagen RNeasy Extraction Kit (Qiagen Ltd., UK) was used to isolate mRNA from approximately 1 × 10^7 cells according to the cell line.
Mix all the following reagents to get the total volume (50 μl): 2X SYBR® Green RTPCR reaction mixture (25 μl), forward primer […] (1.5 μl), reverse primer […] (1.5 μl), nuclease-free water (11 μl), RNA template (1 pg-100 ng total RNA) (10 μl), and iScript reverse transcriptase (1 μl) for One-Step RT-PCR.
The thermal cycler (Rotor-Gene) program used was as follows: one cycle for reverse transcription at 50°C for 10 minutes and one cycle for RT inactivation/Hot-start activation at 95°C for 5 minutes and then 45 cycles for qPCR (10 s at 95°C, 30 seconds for annealing at 55°C, and 30 seconds for extension at 72°C), and this is followed by the final extension (one cycle) at 72°C for 10 minutes.

[2] = tested on: human breast cancer cell line (MCF-7); assay: MTT assay, cytotoxicity; assay type: cell-based; details: MCF-7, 24 hours
Experimental: (§1) Cancer cell lines were manipulated according to the method described by Sigounas et al.. In this method, the cell lines were grown as adherent monolayers in T75 flasks with Dulbecco's modified Eagle's medium (DMEM) supplemented with 10% Fetal Bovine Serum (FBS), 2 mM L-glutamine, and 1% streptomycin/penicillin. The cells were left to grow in a CO2 incubator at 37°C, 5% CO2, and 95% humidity until their confluence.
(§2) The 3-[4,5-dimethylthiazol-2-yl]-2,5-diphenyltetrazolium bromide (MTT) colorimetric assay was used to examine the sensitivity of cells to tested compounds (as anticancer drugs), as previously described. This assay depends on the production of a purple formazan derivative from the yellow tetrazolium bromide (MTT) by mitochondrial succinate dehydrogenase in viable cells. The percentage of cell survival was calculated as follows: (1) Percentage of survival=O.D.treated cells/O.D.control cells×100.
(§3) For preliminary screening of the cytotoxicity of synthesized compounds 3a-g, cells exposed to DMSO were used as a control. Plotting the relationship between the survival score and the compound concentration and calculating the IC50 (the concentration required to inhibit cell viability by 50%) were performed for each test compound according to Li et al. in comparison with the reference standard anticancer agent, 5-FU.
(§4) The 3-[4,5-dimethylthiazol-2-yl]-2,5-diphenyltetrazolium bromide (MTT) colorimetric assay was used to examine the sensitivity of cells to tested compounds (as anticancer drugs), as previously described by Hussein et al. (2017). This assay depend on the production of a purple formazan derivative from the yellow tetrazolium bromide (MTT) by mitochondrial succinate dehydrogenase in viable cells. Briefly, after harvesting the cells with 0.25% trypsin, the cell lines were suspended in DMEM. Cells were seeded in 96-well microtiter plates at a concentration of 5×10^4 cell/well in a fresh medium and left to attach to the plates for 24 h before treatment with the tested compounds 3a-g. Test compounds were dissolved in dimethyl sulfoxide (DMSO). After 24 hours, cells were incubated with the appropriate concentration ranges of compounds, the wells were diluted to […] with fresh medium and incubation was continued for 24 hours. Three wells were used for each concentration. After 24 hours of treatment, 20 μl of MTT solution (5mg/ml) was added and subsequently the plates were further incubated for 4 hours to allow the viable cells to biotransform the yellow-colored MTT into purple formazan crystals. The optical density (O.D.) of each well was measured spectrophotometrically at […] with an enzyme-linked immunosorbent assay (ELISA) microplate reader (BioTek, EL-800, USA). The percentage of cell survival was calculated as follows: […]

[3] = tested on: human liver cancer cell line (HepG2); assay: MTT assay, cytotoxicity; assay type: cell-based; details: HepG2, 24 hours
Experimental: as §1, §2, §3, §4

[4] = tested on: HepG2 cell line; assay: Cell cycle analysis (PI, flow cytometry); assay type: cell-based, human
Experimental: Cell cycle analysis was performed to decide if the newly synthesized thienopyrimidine derivatives arrested the cell cycle and at what phase of the cell cycle, the HepG2 and MCF-7 cell lines were arrested. The experiments were performed as previously described by Tolba et al.. HepG2 and MCF-7 cell lines were seeded and incubated with the tested compounds in 6-well plates. After incubation overnight, the cells were washed twice with ice-cold phosphate-buffered saline (PBS), detached by EDTA-trypsinization from the plates, harvested by centrifugation, fixed in ice-cold 70% (v/v) ethanol, and washed with phosphate-buffered saline (PBS, pH 7.2 ± 0.2). The cells were resuspended with 0.1 mg/ml RNase, stained with […] propidium iodide (PI), and analyzed by flow cytometry using a FACSCalibur flow cytometer (BD Biosciences, San Jose, CA). CellQuest software (Becton Dickinson) was used to determine the cell cycle distributions after incubation with 5-FU or tested compounds. Exposure of HepG2 and MCF-7 cell lines to these compounds could interfere with the normal cell cycle distribution.

[5] = tested on: A549 human lung adenocarcinoma cells; parameters: method as in PMID 29660690; details: cited from earlier work
[6] = tested on: Bcl-2 16me; parameters: method as in PMID 19027294; details: cited from earlier work
[7] = tested on: Bcl-2 26me; parameters: method as in PMID 19027294; details: cited from earlier work
[8] = tested on: MCF-7 cell line; assay: Annexin V-FITC/PI apoptotic assay; assay type: cell-based, human
Text: (§5) Annexin V-fluorescein isothiocyanate (FITC) and counterstaining with propidium iodide (PI) using the Annexin V-FITC/PI apoptosis detection kit (BD Biosciences, San Diego, CA) were employed to distinguish early and late apoptotic cells according to the manufacturer's directions. Annexin V conjugated with fluorescein isothiocyanate was used to quantify the loss of phosphatidylserine asymmetry in cell membranes involved in apoptosis, and propidium iodide can distinguish between early apoptosis, late apoptotic, and necrotic cells. Analyses were achieved by using a FACSCalibur flow cytometer (BD Biosciences, San Jose, CA).
(§6) Cells were gently washed twice with PBS accompanied by tryptic digestion (0.25% trypsin/EDTA) and washed yet again with PBS. All the cells including the floating and adherent ones were harvested, pooled and stained with […] in 1× binding buffer for 15 min at room temperature in the dark. Analyses were achieved by FACS Calibur flow cytometer (BD Biosciences, San Jose, CA).

[9] = tested on: HepG2 cells; assay: Annexin V-FITC/PI apoptotic assay; assay type: cell-based, human
Text: as §5, §6

For “Ethyl (Z)-2-(Ethoxymethyl)-4-oxo-3-(2-oxo-2-((4-(3-(2,3,4-trimethoxyphenyl)acryloyl)-phenyl)amino)ethyl)-3,5,6,8-tetrahydropyrido[4′,3′:4,5]thieno[2,3-d]pyrimidine-7(4H)-carboxylate [Compound 3d]”, the “expression levels of Bcl-2” value [1] was “noticeably decreased”, the “survival percentage (mean ± SEM)” value ([2]; 4.8828125 μg/ml) was 133.8 ± 0.227% and the “survival percentage (mean ± SEM)” value ([2]; 9.765625 μg/ml) was 146.0 ± 0.065%. For the same molecule, the “survival percentage (mean ± SEM)” value ([2]; 19.53125 μg/ml) was 133.2 ± 0.116%, the “survival percentage (mean ± SEM)” value ([2]; 39.0625 μg/ml) was 132.7 ± 0.231% and the “survival percentage (mean ± SEM)” value ([2]; 78.125 μg/ml) was 113.1 ± 0.171%. For the same molecule, the “survival percentage (mean ± SEM)” value ([2]; 156.25 μg/ml) was 103.1 ± 0.202%, the “survival percentage (mean ± SEM)” value ([2]; 312.5 μg/ml) was 35.3 ± 0.044% and the “survival percentage (mean ± SEM)” value ([2]; 625 μg/ml) was 26.5 ± 0.120%. The “survival percentage (mean ± SEM)” value ([2]; 1250 μg/ml) was 8.5 ± 0.006%, the “survival percentage (mean ± SEM)” value ([2]; 2500 μg/ml) was 6.2 ± 0.005% and the “survival percentage (mean ± SEM)” value ([2]; 5000 μg/ml) was 6.12 ± 0.003%. The “survival percentage (mean ± SEM)” value ([2]; 10000 μg/ml) was 5.8 ± 0.001%, the “survival percentage (mean ± SEM)” value ([3]; 4.8828125 μg/ml) was 123.0 ± 0.026% and the “survival percentage (mean ± SEM)” value ([3]; 9.765625 μg/ml) was 111.0 ± 0.041%. The “survival percentage (mean ± SEM)” value ([3]; 19.53125 μg/ml) was 99.2 ± 0.026%, the “survival percentage (mean ± SEM)” value ([3]; 39.0625 μg/ml) was 91.2 ± 0.138% and the “survival percentage (mean ± SEM)” value ([3]; 78.125 μg/ml) was 31.0 ± 0.017%. The “survival percentage (mean ± SEM)” value ([3]; 156.25 μg/ml) was 20.5 ± 0.002%, the “survival percentage (mean ± SEM)” value ([3]; 312.5 μg/ml) was 20.5 ± 0.002% and the “survival percentage (mean ± SEM)” value ([3]; 625 μg/ml) was 20.0 ± 0.001%. The “survival percentage (mean ± SEM)” value ([3]; 1250 μg/ml) was 19.5 ± 0.001%, the “survival percentage (mean ± SEM)” value ([3]; 2500 μg/ml) was 19.4 ± 0.004% and the “survival percentage (mean ± SEM)” value ([3]; 5000 μg/ml) was 18.5 ± 0.003%. The “survival percentage (mean ± SEM)” value ([3]; 10000 μg/ml) was 18.4 ± 0.002%, the “S phase cell population” value [4] was “significant (P < 0.05) increase” and the “cell population in pre-G1 phases compared with control cells” value [4] was “significant increase”.
In the case of `N.N.[Cl][Pt][Cl]` [cisplatin], the IC50 [5] is given as 15.3 µM.
In the case of `Cc1c(Cl)c(C(=O)N(c2ccccc2)c2ccccc2)nn1-c1ccccc1C(=O)N1Cc2ccccc2CC1CN` (stereo not shown) [DRO], the IC50 [6] is given as 0.03 µM and the IC50 [7] is given as 0.1 µM.
For `C=CCn1c(SCC(=O)Nc2ccc(C(=O)/C=C/c3cc(OC)c(OC)c(OC)c3)cc2)nnc1-c1ccc(OC)cc1` [compound I], the IC50 [5] is listed as 4.4 µM.
For `CCOC(=O)Cn1c(SCC(=O)Nc2ccc(C(=O)/C=C\c3ccccc3Cl)cc2)nc2sc3c(c2c1=O)CCN(C(=O)OCC)C3` [Compound 3a, Ethyl (Z)-2-((2-((4-(3-(2-Chlorophenyl)acryloyl)phenyl)amino)-2-oxoethyl)thio)-3-(2-ethoxy-2-oxoethyl)-4-oxo-3,5,6,8-tetrahydropyrido[4′,3′:4,5]thieno[2,3-d]pyrimidine-7(4H)-carboxylate], the “expression levels of Bcl-2” value [1] was “noticeably decreased”, the “survival percentage (mean ± SEM)” value ([2]; 4.8828125 μg/ml) was 150.0 ± 0.171% and the “survival percentage (mean ± SEM)” value ([2]; 9.765625 μg/ml) was 132.9 ± 0.132%. For the same molecule, the “survival percentage (mean ± SEM)” value ([2]; 19.53125 μg/ml) was 124.4 ± 0.079%, the “survival percentage (mean ± SEM)” value ([2]; 39.0625 μg/ml) was 129.1 ± 0.038% and the “survival percentage (mean ± SEM)” value ([2]; 78.125 μg/ml) was 108.4 ± 0.084%. The “survival percentage (mean ± SEM)” value ([2]; 156.25 μg/ml) was 101.8 ± 0.284%, the “survival percentage (mean ± SEM)” value ([2]; 312.5 μg/ml) was 101.6 ± 0.022% and the “survival percentage (mean ± SEM)” value ([2]; 625 μg/ml) was 64.9 ± 0.008%. For the same molecule, the “survival percentage (mean ± SEM)” value ([2]; 1250 μg/ml) was 9.8 ± 0.003%, the “survival percentage (mean ± SEM)” value ([2]; 2500 μg/ml) was 6.28 ± 0.003% and the “survival percentage (mean ± SEM)” value ([2]; 5000 μg/ml) was 6.0 ± 0.001%. For the same molecule, the “survival percentage (mean ± SEM)” value ([2]; 10000 μg/ml) was 6.0 ± 0.063%, the “survival percentage (mean ± SEM)” value ([3]; 4.8828125 μg/ml) was 103.5 ± 0.033% and the “survival percentage (mean ± SEM)” value ([3]; 9.765625 μg/ml) was 87.8 ± 0.087%. The “survival percentage (mean ± SEM)” value ([3]; 19.53125 μg/ml) was 74.2 ± 0.012%, the “survival percentage (mean ± SEM)” value ([3]; 39.0625 μg/ml) was 73.8 ± 0.019% and the “survival percentage (mean ± SEM)” value ([3]; 78.125 μg/ml) was 66.9 ± 0.018%. For the same molecule, the “survival percentage (mean ± SEM)” value ([3]; 156.25 μg/ml) was 40.1 ± 0.021%, the “survival percentage (mean ± SEM)” value ([3]; 312.5 μg/ml) was 28.4 ± 0.009% and the “survival percentage (mean ± SEM)” value ([3]; 625 μg/ml) was 21.7 ± 0.012%. The “survival percentage (mean ± SEM)” value ([3]; 1250 μg/ml) was 20.5 ± 0.004%, the “survival percentage (mean ± SEM)” value ([3]; 2500 μg/ml) was 19.5 ± 0.001% and the “survival percentage (mean ± SEM)” value ([3]; 5000 μg/ml) was 19.1 ± 0.001%. The “survival percentage (mean ± SEM)” value ([3]; 10000 μg/ml) was 18.5 ± 0.001%, the “total, early, and late apoptosis as well as necrosis relative to the control cells” value [8] was “significant increase” and the “early and late apoptosis” value [9] was “significantly exhibited early and late apoptosis”. For the same molecule, the melting point was 181 to 182 °C, the “cell population in G2/M compared with control cells” value [4] was “substantial increase” and the “cell population in pre-G1 phases compared with control cells” value [4] was “significant increase”.
